Here are results for 32 molecules from patent US8710043B2, “TRPM8 antagonists and their use in treatments” (Amgen Inc., priority 2011, dated 2014).

T1 sequence (Q7Z2W7 whole entry): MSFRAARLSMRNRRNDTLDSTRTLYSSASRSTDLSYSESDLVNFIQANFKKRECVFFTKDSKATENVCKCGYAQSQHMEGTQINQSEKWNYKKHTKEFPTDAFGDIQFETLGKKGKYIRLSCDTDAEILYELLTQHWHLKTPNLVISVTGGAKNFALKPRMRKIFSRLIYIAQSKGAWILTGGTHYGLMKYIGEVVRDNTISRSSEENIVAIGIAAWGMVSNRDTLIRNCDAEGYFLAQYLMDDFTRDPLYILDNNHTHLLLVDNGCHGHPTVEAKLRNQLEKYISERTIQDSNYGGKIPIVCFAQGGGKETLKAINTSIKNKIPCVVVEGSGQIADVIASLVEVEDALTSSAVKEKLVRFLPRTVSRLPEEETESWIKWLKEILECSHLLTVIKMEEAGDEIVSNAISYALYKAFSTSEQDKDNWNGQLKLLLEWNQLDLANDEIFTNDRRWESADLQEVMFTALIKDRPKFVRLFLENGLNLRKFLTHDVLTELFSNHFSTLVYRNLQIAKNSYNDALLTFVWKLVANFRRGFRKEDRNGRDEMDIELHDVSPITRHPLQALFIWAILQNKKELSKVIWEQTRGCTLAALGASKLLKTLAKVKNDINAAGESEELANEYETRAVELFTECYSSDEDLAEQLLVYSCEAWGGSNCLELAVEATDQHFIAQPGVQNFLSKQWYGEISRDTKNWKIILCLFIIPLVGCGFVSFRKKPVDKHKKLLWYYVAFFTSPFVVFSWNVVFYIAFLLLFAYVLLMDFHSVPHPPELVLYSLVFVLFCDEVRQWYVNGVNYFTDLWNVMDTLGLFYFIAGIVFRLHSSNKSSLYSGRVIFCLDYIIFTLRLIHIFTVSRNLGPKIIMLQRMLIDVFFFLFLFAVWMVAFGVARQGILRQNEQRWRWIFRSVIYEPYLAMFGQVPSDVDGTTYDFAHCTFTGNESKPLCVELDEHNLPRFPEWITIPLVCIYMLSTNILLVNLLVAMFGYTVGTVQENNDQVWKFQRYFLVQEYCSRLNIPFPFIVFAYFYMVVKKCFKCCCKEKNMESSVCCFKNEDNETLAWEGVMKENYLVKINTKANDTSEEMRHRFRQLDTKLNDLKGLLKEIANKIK

The first experiment addresses T1, human TRPM8 (Homo sapiens, UniProt Q7Z2W7).
T1 construct: expressed in transfected cells; host or cells: Chinese hamster ovary (CHO) cells, T-REx tetracycline-inducible system, co-transfected with aequorin
Briefly: Luminescence readout assay for measuring intracellular calcium, icilin activation. The class given is cell-based. To be noted: CHO cells expressing human TRPM8, aequorin luminescence, 1 μM icilin activation; read-out: hTRPM8 IC50. In a few lines:
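The read-out was luminescence reporting intracellular calcium, recorded by a CCD-based luminometer. Compounds were preincubated for 2.5 min before agonist challenge with 1 μM icilin. Human TRPM8 was expressed in a stable T-REx CHO line, induced with 0.5 μg/mL tetracycline the day before.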
As to `O=C(N[C@@H](c1ccc(C(F)(F)F)cc1)c1ncccc1C(F)(F)F)c1c[nH]c2ncccc12` [Example 43, (S)-N-((4-(trifluoromethyl)phenyl)(3-(trifluoromethyl)pyridin-2-yl)methyl)-1H-pyrrolo[2,3-b]pyridine-3-carboxamide], the IC50 amounted to 24.5 nM. In the case of `Cc1ncc(C(=O)N[C@@H](c2ccc(C(F)(F)F)cc2)c2ncccc2C(F)(F)F)c(N)n1` [Example 137, (S)-4-amino-2-methyl-N-((4-(trifluoromethyl)phenyl)(3-(trifluoromethyl)pyridin-2-yl)methyl)pyrimidine-5-carboxamide], the IC50 amounted to 94.9 nM. For `Cc1cc([C@H](NC(=O)c2ccc(=O)[nH]c2)c2ncccc2F)cc(C(F)(F)F)c1` [Example 333, (S)-N-((3-fluoropyridin-2-yl)(3-methyl-5-(trifluoromethyl)phenyl)methyl)-6-oxo-l,6-dihydropyridine-3-carboxamide], the IC50 is 658 nM. The same measure, in the same setting: to `O=C(N[C@@H](c1ccc(C(F)(F)F)cc1)c1ncccc1C(F)(F)F)[C@@H]1CCCO1` [Example 234, (S)-N-((S)-(4-(trifluoromethyl)phenyl)(3-(trifluoromethyl)pyridin-2-yl)methyl)THF-2-carboxamide] belongs 169 nM; to `O=C(N[C@@H](c1ccc(C(F)(F)F)cc1)c1ccccn1)c1ccc(=O)[nH]c1` [Example 201, (S)-6-oxo-N-(pyridin-2-yl(4-(trifluoromethyl)phenyl)methyl)-1,6-dihydropyridine-3-carboxamide 2,2,2-trifluoroacetate], 29.3 nM; to `Cc1ccc(C(=O)N[C@@H](c2ccc(C(F)(F)F)cc2)c2ncccc2F)cn1` [Example 52, (S)-N-((3-fluoropyridin-2-yl)(4-(trifluoromethyl)phenyl)methyl)-6-methylnicotinamide], 40.1 nM. As for `O=C(NC(c1ccc(OC(F)(F)F)c(F)c1)c1c(F)cccc1F)c1ccc(=O)[nH]c1` (centres unmarked) [Example 418, N-((2,6-difluorophenyl)(3-fluoro-4-(trifluoromethoxy)phenyl)methyl)-6-oxo-1,6-dihydropyridine-3-carboxamide], the IC50 came to 65 nM. Take `O=C(N[C@@H](c1ccc(C(F)(F)F)cc1)c1ncccc1F)c1ccc2nccc(O)c2c1` [Example 114, (S)-N-((3-fluoropyridin-2-yl)(4-(trifluoromethyl)phenyl)methyl)-4-hydroxyquinoline-6-carboxamide 2,2,2-trifluoroacetate]: the IC50 turned out to be 50.6 nM. On the same count and under the same terms, to `O=C(N[C@@H](c1ccc(C(F)(F)F)cc1)c1ncccc1C(F)(F)F)c1ccn2nnnc2c1` [Example 312, (S)-N-((4-(trifluoromethyl)phenyl)(3-(trifluoromethyl)pyridin-2-yl)methyl)tetrazolo[1,5-a]pyridine-7-carboxamide] belongs 25.2 nM. On the same count and under the same terms, under `COn1cc(C(=O)N[C@@H](c2ccc(C(F)(F)F)cc2)c2ncccc2F)ccc1=O` [Example 369, (S)-N-((3-fluoropyridin-2-yl)(4-(trifluoromethyl)phenyl)methyl)-1-methoxy-6-oxo-1,6-dihydropyridine-3-carboxamide] stands 3710 nM. Consider `O=C(N[C@@H](c1ccc(C(F)(F)F)c(F)c1)c1ncccc1C(F)(F)F)c1ccccn1` [Example 112, (S)-N-((3-fluoro-4-(trifluoromethyl)phenyl)(3-(trifluoromethyl)pyridin-2-yl)methyl)picolinamide], for which the IC50 was determined as 84.4 nM. On the same count and under the same terms, to `O=C(N[C@@H](c1ccc(C(F)(F)F)cc1)c1ncccc1C(F)(F)F)c1ccc2c(c1)CNC2=O` [Example 271, (S)-1-Oxo-N-((4-(trifluoromethyl)phenyl)(3-(trifluoromethyl)-pyridin-2-yl)methyl)isoindoline-5-carboxamide] belongs 8.9 nM. Still for that read-out and setting: to `CCc1ccc([C@H](NC(=O)c2ccc3cccnc3c2)c2ncccc2C(F)(F)F)cc1` [Example 115, (S)-N-((4-ethylphenyl)(3-(trifluoromethyl)pyridin-2-yl)methyl)quinoline-7-carboxamide] belongs 56.2 nM. For `Nc1ccc(C(=O)N[C@@H](c2ccc(C(F)(F)F)cc2)c2ncccc2C(F)(F)F)cn1` [Example 134, (S)-6-amino-N-((4-(trifluoromethyl)phenyl)(3-(trifluoromethyl)pyridin-2-yl)methyl)nicotinamide], the IC50 came out at 31 nM. On the same count and under the same terms, to `O=C(N[C@@H](c1ccc(OC(F)(F)F)cc1)c1ncccc1F)c1c[nH]c(=O)cn1` [Example 354, (S)-N-((3-fluoropyridin-2-yl)(4-(trifluoromethoxy)phenyl)methyl)-5-oxo-4,5-dihydropyrazine-2-carboxamide] belongs 68.1 nM; to `O=C(N[C@@H](c1ccc(C(F)(F)F)cc1)c1ncccc1F)c1ccc(=O)[nH]n1` [Example 317, (S)-N-((3-fluoropyridin-2-yl)(4-(trifluoromethyl)phenyl)methyl)-6-oxo-1,6-dihydropyridazine-3-carboxamide], 38.9 nM; to `O=C(N[C@@H](c1ccc(C(F)(F)F)cc1)c1c(F)cccc1F)c1ccc(=O)[nH]c1` [Example 258, (S)-N-((2,6-difluorophenyl)(4-(trifluoromethyl)phenyl)methyl)-6-oxo-1,6-dihydropyridine-3-carboxamide], 40.7 nM.

Turning to `COc1ccc(C(=O)N[C@@H](c2ccc(C(F)(F)F)cc2)c2ncccc2C(F)(F)F)nn1` [Example 37, (S)-6-methoxy-N-((4-(trifluoromethyl)phenyl)(3-(trifluoromethyl)pyridin-2-yl)methyl)pyridazine-3-carboxamide], the IC50 came out at 146 nM. For the molecule `O=C(N[C@@H](c1ccc(C(F)(F)F)cc1)c1ncccc1C(F)(F)F)c1ccc(-c2nnn[nH]2)cc1` [Example 141, (S)-4-(1H-tetrazol-5-yl)-N-((4-(trifluoromethyl)phenyl)(3-(trifluoromethyl)pyridin-2-yl)methyl)benzamide], the IC50 was determined as 160 nM. As to `O=C(N[C@@H](c1ccc(C(F)(F)F)cc1)c1ncccc1C(F)(F)F)c1cccc(I)c1` [Example 117, (S)-3-iodo-N-((4-(trifluoromethyl)phenyl)(3-(trifluoromethyl)pyridin-2-yl)methyl)benzamide], the IC50 is 70 nM. For the molecule `O=C(N[C@@H](c1ccc(C(F)(F)F)cc1)c1ncccc1F)c1ccc(=O)n(C2COC2)c1` [Example 305, (S)-N-((3-fluoropyridin-2-yl)(4-(trifluoromethyl)phenyl)methyl)-1-(oxetan-3-yl)-6-oxo-1,6-dihydropyridine-3-carboxamide], the IC50 was determined as 29.6 nM. `COC(=O)c1ccc(C(=O)N[C@@H](c2ccc(OC(F)(F)F)c(F)c2)c2ncccc2F)nc1` [Example 398, (S)-methyl 6-(((3-fluoro-4-(trifluoromethoxy)phenyl)(3-fluoropyridin-2-yl)methyl)carbamoyl)nicotinate]: the IC50 was found to be 189 nM. Consider `O=C(N[C@@H](c1cnc2ccc(Cl)cc2c1)c1ncccc1C(F)(F)F)c1ccc(=O)[nH]c1` [Example 16, (S)-N-((6-chloroquinolin-3-yl)(3-(trifluoromethyl)pyridin-2-yl)methyl)-6-hydroxynicotinamide], for which the IC50 stood at 80.7 nM. For `COc1ccc(C(=O)N[C@@H](c2ccc(C(F)(F)F)cc2)c2ncccc2F)cn1` [Example 46, (S)-N-((3-fluoropyridin-2-yl)(4-(trifluoromethyl)phenyl)methyl)-6-methoxynicotinamide], the IC50 worked out at 12.3 nM. In the case of `O=C1Cc2ccc(C(=O)N[C@@H](c3ccc(C(F)(F)F)cc3)c3ncccc3F)cc2N1` [Example 71, (S)-N-((3-fluoropyridin-2-yl)(4-(trifluoromethyl)phenyl)methyl)-2-oxoindoline-6-carboxamide], the IC50 was 9.2 nM. For `O=C1Cc2ccc(C(=O)N[C@@H](c3ccc(OC(F)(F)F)cc3)c3ncccc3F)cc2N1` [Example 90, (S)-N-((3-fluoropyridin-2-yl)(4-(trifluoromethoxy)phenyl)methyl)-2-oxoindoline-6-carboxamide], the IC50 was 6.2 nM. Same read-out and setting: to `CN1C(=O)c2ccc(C(=O)N[C@@H](c3ccc(C(F)(F)F)cc3)c3ncccc3C(F)(F)F)cc2C1=O` [Example 270, (S)-2-Methyl-1,3-dioxo-N-((4-(trifluoromethyl)phenyl)(3-(trifluoromethyl)pyridin-2-yl)methyl)isoindoline-5-carboxamide] belongs 19.1 nM.

Regarding `COc1ncccc1C(=O)NC(c1ccc(C(F)(F)F)cc1)c1ncccc1F` (centres unmarked) [Example 36, N-((3-fluoropyridin-2-yl)(4-(trifluoromethyl)phenyl)methyl)-2-methoxynicotinamide], the IC50 amounted to 73 nM.

As for `O=C(N[C@@H](c1ccc(C(F)(F)F)cc1)c1ncccc1C(F)(F)F)c1cccc(C(F)(F)F)c1` [Example 211, (S)-3-(trifluoromethyl)-N-((4-(trifluoromethyl)phenyl)(3-(trifluoromethyl)pyridin-2-yl)methyl)benzamide], the IC50 was 115 nM. For `O=C(N[C@@H](c1ccc(OC(F)(F)F)c(F)c1)c1ncccc1F)c1ccc(=O)n(C2COC2)c1` [Example 304, (S)-N-((3-fluoro-4-(trifluoromethoxy)phenyl)(3-fluoropyridin-2-yl)methyl)-1-(oxetan-3-yl)-6-oxo-1,6-dihydropyridine-3-carboxamide], the IC50 was found to be 14.4 nM.

With `O=C(N[C@@H](c1ccc(C(F)(F)F)cc1)c1ncccc1C(F)(F)F)c1ccc2nnnn2c1` [Example 311, (S)-N-((4-(trifluoromethyl)phenyl)(3-(trifluoromethyl)pyridin-2-yl)methyl)tetrazolo[1,5-a]pyridine-6-carboxamide], the IC50 was 27.8 nM.

Staying with this experiment, now noted: hTRPM8 IC50, CHO cells expressing human TRPM8, aequorin luminescence, 1 μM icilin activation.
Consider `Cn1nc(C(=O)N[C@@H](c2ccc(C(F)(F)F)cc2)c2ncccc2C(F)(F)F)c2ccccc21` [Example 215, (S)-1-methyl-N-((4-(trifluoromethyl)phenyl)(3-(trifluoromethyl)pyridin-2-yl)methyl)-1H-indazole-3-carboxamide], for which the IC50 was found to be 84.5 nM.
